Test results reported in ChEMBL document CHEMBL1133238, “Structure-activity relationships of neuropeptide Y Y1 receptor antagonists related to BIBP 3226” (Bioorg Med Chem Lett, 2000).

Columns and labels:
[1] = target: T1, Neuropeptide Y receptor type 1 (Homo sapiens, UniProt P25929); assay: NPY Y1-antagonistic activity in HEL cells by measuring the inhibition of porcine NPY (10 nM) stimulated increase in the intracellular [Ca2+] concentration in a FURA-assay.; type: functional, cell-based
T1 sequence (P25929 whole entry): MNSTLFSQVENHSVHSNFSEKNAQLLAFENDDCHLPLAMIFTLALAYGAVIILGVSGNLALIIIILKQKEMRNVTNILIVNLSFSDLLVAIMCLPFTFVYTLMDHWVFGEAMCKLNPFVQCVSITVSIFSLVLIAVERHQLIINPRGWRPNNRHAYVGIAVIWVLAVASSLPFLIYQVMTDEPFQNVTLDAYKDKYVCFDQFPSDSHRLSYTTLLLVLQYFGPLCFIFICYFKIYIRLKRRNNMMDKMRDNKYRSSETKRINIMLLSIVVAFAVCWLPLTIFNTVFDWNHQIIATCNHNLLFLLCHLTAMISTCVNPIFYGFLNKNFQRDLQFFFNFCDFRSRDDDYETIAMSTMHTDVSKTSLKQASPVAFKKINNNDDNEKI

[2] = target: T1, Neuropeptide Y receptor type 1; assay: Inhibition of binding of [3H]propionyl-NPY (1 nM) to Neuropeptide Y receptor type 1 in SK-N-MC cells; type: cell-based
[3] = target: T2, Neuropeptide Y receptor type 2 (Homo sapiens, UniProt P49146); assay: Inhibition of binding of [3H]propionyl-NPY (1 nM) to Neuropeptide Y receptor type 2 in SMS-KAN cell membranes
T2 sequence (P49146 whole entry): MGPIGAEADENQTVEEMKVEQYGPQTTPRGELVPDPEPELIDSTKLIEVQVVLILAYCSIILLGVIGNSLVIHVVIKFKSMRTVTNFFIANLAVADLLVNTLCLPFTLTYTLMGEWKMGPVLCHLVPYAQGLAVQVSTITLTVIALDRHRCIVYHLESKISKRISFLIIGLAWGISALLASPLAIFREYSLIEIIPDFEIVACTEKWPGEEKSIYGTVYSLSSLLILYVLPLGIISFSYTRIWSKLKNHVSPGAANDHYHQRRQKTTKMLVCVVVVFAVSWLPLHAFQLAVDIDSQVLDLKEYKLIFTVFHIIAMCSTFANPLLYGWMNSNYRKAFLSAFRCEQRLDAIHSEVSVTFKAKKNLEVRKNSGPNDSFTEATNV

[4] = target: T3, Neuropeptide Y receptor type 5 (Homo sapiens, UniProt Q15761); assay: Inhibition of binding of [3H]propionyl-NPY (1 nM) to Neuropeptide Y receptor type 5 in HEC-1-B cells; type: cell-based
T3 sequence (Q15761 whole entry): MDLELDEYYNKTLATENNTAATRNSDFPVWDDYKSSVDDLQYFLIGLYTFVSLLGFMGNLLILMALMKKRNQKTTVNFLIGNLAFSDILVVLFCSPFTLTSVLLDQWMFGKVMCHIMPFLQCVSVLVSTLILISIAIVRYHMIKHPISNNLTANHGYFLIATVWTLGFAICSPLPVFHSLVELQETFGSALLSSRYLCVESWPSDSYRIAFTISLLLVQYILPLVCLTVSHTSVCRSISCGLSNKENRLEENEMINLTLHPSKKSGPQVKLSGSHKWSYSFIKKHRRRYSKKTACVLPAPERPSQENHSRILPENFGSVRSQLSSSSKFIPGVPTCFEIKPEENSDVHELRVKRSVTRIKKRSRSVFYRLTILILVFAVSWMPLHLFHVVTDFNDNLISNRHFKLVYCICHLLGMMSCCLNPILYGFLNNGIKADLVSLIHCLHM

[5] = target: Neuropeptide Y receptor type 1 (Homo sapiens) (UniProt P25929); assay: NPY Y1-antagonistic activity in HEL cells by measuring the inhibition of porcine NPY (10 nM) stimulated increase in the intracellular [Ca2+] concentration in a FURA-assay;Inactive, less than 20% inhibition at […]

In the case of `N=C(N)NCCCC(NC(=O)C(c1ccccc1)c1ccccc1)C(=O)NCc1ccccc1` (configuration not stated), the IC50 ([1]; read-out: IC50) is reported as 0.11 µM.

For `N=C(NCCCc1ccccc1)NCCCC(NC(=O)Cc1ccc(-c2ccccc2)cc1)C(=O)N1CCCc2cc(O)ccc2C1` (configuration not stated), the IC50 [2] was 22 µM, the IC50 ([1]; read-out: IC50) was 11.9 µM and the IC50 [3] was 78 µM. The IC50 [4] was 0.77 µM.

For `N=C(N)NCCCC(NC(=O)Cc1ccc(-c2ccccc2)cc1)C(=O)N[C@H]1CCc2ccccc21` (some centres not stated), the IC50 ([1]; hel) was “Not Active”.

`N=C(N)NCCCC(NC(=O)C(c1ccccc1)c1ccccc1)C(=O)N[C@@H]1CCc2ccccc21` (some centres not stated) was tested, and the IC50 ([1]; read-out: IC50) was 21 µM.

`N=C(N)NCCCC(NC(=O)C(c1ccccc1)c1ccccc1)C(=O)N[C@@H](C(N)=O)c1ccc(O)cc1` (some centres not stated) showed an IC50 ([1]; read-out: IC50) of 8.1 µM.

With `N=C(N)NCCCC(NC(=O)C(c1ccccc1)c1ccccc1)C(=O)N[C@H]1CCc2ccccc21` (some centres not stated) the IC50 ([1]; read-out: IC50) was 1.4 µM.

For `N=C(NCCCc1ccccc1)NCCCC(NC(=O)Cc1ccc(-c2ccccc2)cc1)C(=O)N1CCCc2ccccc2C1` (configuration not stated), the IC50 ([1]; hel) was “Not Active”.

Molecule `N=C(N)NCCCC(NC(=O)C(c1ccc(Cl)cc1)c1ccc(Cl)cc1)C(=O)N1CCCc2ccccc2C1` (configuration not stated) has an IC50 ([1]; read-out: IC50) of 1.1 µM.

With `N=C(N)NCCCC(NC(=O)C(c1ccccc1)(c1ccccc1)c1ccccc1)C(=O)NCc1ccccc1` (configuration not stated) the IC50 [5] was “Not Active”.

In the case of `N=C(N)NCCCC(NC(=O)Cc1ccc(-c2ccccc2)cc1)C(=O)NCc1ccccc1` (configuration not stated), the IC50 ([1]; read-out: IC50) is reported as 21.8 µM.

`N=C(N)NCCCC(NC(=O)C(c1ccccc1)c1ccccc1)C(=O)NCCc1ccccn1` (configuration not stated) showed an IC50 ([1]; read-out: IC50) of 11.5 µM.

`N=C(N)NCCCC(NC(=O)C(c1ccccc1)c1ccc(Cl)cc1)C(=O)NCc1ccccc1` (configuration not stated) gave an IC50 [2] of 0.17 µM, an IC50 ([1]; read-out: IC50) of 0.081 µM and an IC50 [3] of 97 µM. It also gave an IC50 [4] of 2.6 µM.

`C[C@@H](NC(=O)C(CCCNC(=N)N)NC(=O)C(c1ccccc1)c1ccccc1)c1ccccc1` (some centres not stated) gave an IC50 [2] of 0.15 µM, an IC50 ([1]; read-out: IC50) of 0.2 µM and an IC50 [3] of 177 µM. For the same molecule, the IC50 [4] was 48 µM.

In the case of `N=C(N)NCCCC(NC(=O)C(c1ccccc1)c1ccc(Cl)cc1)C(=O)N[C@H]1CCc2ccccc21` (some centres not stated), the IC50 [2] is reported as 5.3 µM, the IC50 ([1]; read-out: IC50) is reported as 3 µM and the IC50 [3] is reported as 59 µM. The IC50 [4] was 11.9 µM.

For `N=C(N)NCCCC(NC(=O)C(c1ccc(Cl)cc1)c1ccc(Cl)cc1)C(=O)NCc1ccccc1` (configuration not stated), the IC50 ([1]; read-out: IC50) was 0.1 µM.

Molecule `N=C(N)NCCCC(NC(=O)C(c1ccccc1)c1ccccc1)C(=O)N[C@H](CO)c1ccccc1` (some centres not stated) has an IC50 [2] of 0.184 µM, an IC50 ([1]; read-out: IC50) of 0.9 µM and an IC50 [3] of 540 µM. For the same molecule, the IC50 [4] was 68 µM.

`N=C(N)NCCCC(NC(=O)Cc1ccc(-c2ccccc2)cc1)C(=O)N1CCCc2ccccc2C1` (configuration not stated) showed an IC50 ([1]; read-out: IC50) of 76 µM.

`N=C(N)NCCCC(NC(=O)C(c1ccccc1)c1ccccc1)C(=O)N[C@@H](C(N)=O)c1ccccc1` (some centres not stated) gave an IC50 [2] of 2.4 µM, an IC50 ([1]; read-out: IC50) of 4.6 µM and an IC50 [3] of over 400 µM. It also gave an IC50 [4] of 163 µM.

With `N=C(N)NCCCC(NC(=O)C(c1ccccc1)c1ccccc1)C(=O)N1CCCc2cc(O)ccc2C1` (configuration not stated) the IC50 [2] was 0.67 µM, the IC50 ([1]; read-out: IC50) was 0.28 µM and the IC50 [3] was 247 µM. For the same molecule, the IC50 [4] was 25 µM.

In the case of `N=C(N)NCCCC(NC(=O)C(c1ccccc1)(c1ccccc1)c1ccccc1)C(=O)N1CCCc2ccccc2C1` (configuration not stated), the IC50 ([1]; read-out: IC50) is reported as 51 µM.

`N=C(N)NCCCC(NC(=O)C(c1ccccc1)c1ccccc1)C(=O)N[C@@H]1C[C@H](CO)c2ccccc21` (some centres not stated) was tested, and the IC50 [5] was “Not Active”.

In the case of `C[C@H](NC(=O)C(CCCNC(=N)N)NC(=O)C(c1ccccc1)c1ccccc1)c1ccccc1` (some centres not stated), the IC50 ([1]; read-out: IC50) is reported as 2.5 µM.

In the case of `N=C(N)NCCCC(NC(=O)C(c1ccc(Cl)cc1)c1ccc(Cl)cc1)C(=O)N[C@H]1CCc2ccccc21` (some centres not stated), the IC50 ([1]; read-out: IC50) is reported as over 10 µM.

`N=C(N)NCCCC(NC(=O)C(c1ccccc1)c1ccccc1)C(=O)N[C@H](C(N)=O)c1ccccc1` (some centres not stated) was tested, and the IC50 ([1]; read-out: IC50) was 7.5 µM.

`N=C(N)NCCCC(NC(=O)C(c1ccccc1)c1ccc(Cl)cc1)C(=O)N1CCCc2ccccc2C1` (configuration not stated) gave an IC50 ([1]; read-out: IC50) of 1.1 µM.

For `N=C(N)NCCCC(NC(=O)C(c1ccccc1)c1ccccc1)C(=O)NCc1ccccn1` (configuration not stated), the IC50 ([1]; read-out: IC50) was 3.75 µM.

`N=C(N)NCCCC(NC(=O)C(c1ccccc1)c1ccccc1)C(=O)N1CCCc2ccccc2C1` (configuration not stated) was tested, and the IC50 ([1]; read-out: IC50) was 2.2 µM.

For `N=C(N)NCCCC(NC(=O)C(c1ccccc1)c1ccccc1)C(=O)N[C@@H](CO)c1ccccc1` (some centres not stated), the IC50 ([1]; read-out: IC50) was 22.3 µM.

Molecule `N=C(N)NCCCC(NC(=O)C(c1ccccc1)c1ccccc1)C(=O)NCc1ccc(O)cc1` (configuration not stated) has an IC50 [3] of over 100 µM and an IC50 [4] of 80 µM.

Molecule `CC(NC(=O)C(CCCN=C(N)N)NC(=O)C(c1ccccc1)c1ccccc1)c1ccc(O)cc1` (racemic) has an IC50 [2] of 0.019 µM, an IC50 ([1]; read-out: IC50) of 0.06 µM and an IC50 [3] of 575 µM. It also gave an IC50 [4] of 75 µM.

In the case of `N=C(N)NCCCC(NC(=O)C(c1ccccc1)c1ccccc1)C(=O)NCC1CCCCN1` (racemic), the IC50 [5] is reported as “Not Active”.

Work on `N=C(N)NCCCC(NC(=O)C(c1ccccc1)c1ccccc1)C(=O)NC1CCc2cc(O)ccc21` (racemic) yielded an IC50 ([1]; read-out: IC50) of 1 µM.
